Data set [1] in a line: Preclinical trials: animal pharmacology, toxicology and pharmacokinetic studies. Further details: species or system animals. As to conditions: in vivo.
The nature of data set [2]: Clinical trials on healthy volunteers evaluating the effect of food on oral absorption. It counts as in vivo. As to conditions: for required dose relative to the product of Example 5 to obtain the same absorption: absorption = area under the curve of plasma SR 57746 concentrations; for absorption with a meal versus on an empty stomach: oral, area under the curve of plasma SR 57746 concentrations. An excerpt:
The results obtained in vitro were confirmed in vivo by comparing the observations made in two clinical trials on healthy volunteers, the first trial evaluating the effect of food on the oral absorption of the SR 57746 A obtained according to EP 0 101 381, and the second trial evaluating the effect of food on the oral absorption of the SR 57746 A of Example 5 below. In both the trials, the criterion for evaluation of the absorption was the area under the curve of the plasma SR 57746 concentrations as a function of time.

Data set [3] can be described thus: Phase I clinical trials on healthy volunteers, oral administration. It counts as in vivo. As to conditions: administered orally. From the text: EP 0 101 381 describes SR 57746 in the form of the hydrochloride, hereafter called SR 57746 A, and this salt was used in preclinical and clinical trials on healthy volunteers (Phase I). According to said document, SR 57746 is isolated by crystallization from ethanol, especially absolute ethanol.

Data set [4] relates to amyotrophic lateral sclerosis. As to conditions: 2 mg/day; cited from earlier work.
In another data set the test system is CACO-2 monolayer. In words: CACO-2 monolayer model, in vitro absorption (dissolution and permeability). As to conditions: Hanks' solution supplemented with 10% of fetal calf serum and taurocholic acid. It counts as in vitro ADME. As to the method: A study concerning the determination of the in vitro absorption of the microparticles according to the present invention was carried out using the CACO-2 monolayer model.
(Passage across Caco-2 layers is used to estimate intestinal permeability.)

Each structure is given as a SMILES string.

Consider `FC(F)(F)c1cccc(C2=CCN(CCc3ccc4ccccc4c3)CC2)c1` [SR 57746, 1-[2-(2-Naphthyl)ethyl]-4-(3-trifluoromethylphenyl)-1,2,3,6-tetrahydropyridine], for which, in data set [1], the “activity and behavior in animal pharmacology and toxicology tests” value is “constant activity and behavior”; the “pharmacokinetic studies on animals” value is “constant and reproducible results”.

On to `Cl.FC(F)(F)c1cccc(C2=CCN(CCc3ccc4ccccc4c3)CC2)c1` [1-[2-(2-naphthyl)ethyl]-4-(3-trifluoromethylphenyl)-1,2,3,6-tetrahydropyridine hydrochloride], for which the entries for the “required dose relative to the product of Example 5 to obtain the same absorption” value in data set [2] (administered on an empty stomach) and in data set [2] (administered with a meal) were “about nine times greater” and “three to four times greater”, respectively. For the same molecule, the “absorption with a meal versus on an empty stomach” value in data set [2] (hydrochloride) is “two to three times greater”.

Take `Cl.FC(F)(F)c1cccc(C2=CCN(CCc3ccc4ccccc4c3)CC2)c1` [SR 57746 A, 1-[2-(2-naphthyl)ethyl]-4-(3-trifluoromethylphenyl)-1,2,3,6-tetrahydropyridine hydrochloride]: the “variability in the plasma concentrations and the pharmacodynamic effects” value in data set [3] is “high variability”. In addition, the “clinical outcome in amyotrophic lateral sclerosis” value in data set [4] is “proved promising”.

On to `Cl.FC(F)(F)c1cccc(C2=CCN(CCc3ccc4ccccc4c3)CC2)c1` [Example 5], for which, in the data set with CACO-2 monolayer, the dissolution and permeability result is given as “rendered uniform”. The “absorption with a meal versus on an empty stomach” value in data set [2] is reported as “the absorption is the same”.

These data come from patent publication US20100021541A1, “Microparticulate form of a Tetrahydropyridine derivative” (SANOFI-AVENTIS, priority 1996, published 2010).
